The values that follow come from patent US20240226107A1, “UBIQUITIN-SPECIFIC PROTEASE 1 (USP1) INHIBITOR” (SIMCERE ZAIMING PHARMACEUTICAL CO., LTD., priority 2021, published 2024).

Converted amounts (≈) assume the structure as drawn.

Series [1] is described as follows: Solubility (PBS pH 7.4) of compounds from DMSO solution. The format is physicochemical. The conditions noted are these: aqueous buffer, kinetic from dmso stock, 10 mM DMSO solution into PBS pH 7.4, 25° C., read-out: Calculated solubility. The method, then:
The solubility (PBS pH 7.4) of a compound to be tested was determined by LC/MS/MS. 6 μL of 10 mM DMSO solution of the compound to be tested was mixed with 194 μL of DMSO to prepare 300 μM compound solution. In 490 μL of water and acetonitrile (1:1) containing an internal standard, 5 μL of the solution and 5 μL of PBS pH 7.4 solution were mixed to prepare 3 μM standard concentration solution of the sample to be tested. The dilution factor of the standard solution can be adjusted according to the strength of response signals in LC/MS.
To 485 μL of PBS pH 7.4 solution, 15 μL of 10 mM DMSO solution of the compound to be tested was added. […] After shaking, the stir bar was removed, and the sample was transferred to a filter plate and filtered using a vacuum manifold. In 490 μL of water and acetonitrile (1:1) containing an internal standard, 5 μL of filtrate and 5 μL of PBS pH 7.4 solution were mixed to prepare a solution to be tested. The dilution factor can be adjusted according to the solubility value and the strength of response signals in LC/MS.
The resulting samples were determined by LC/MS/MS. The sample solubility was calculated from peak areas of the solution of the compound to be tested and the standard concentration solution, according to the following equation:
[formula] • [Sample] is the solubility of the sample to be tested; • Area ratiosample is the ratio of the peak area of sample in the sample to be tested to the peak area of the internal standard; • INJ VOL STD is the injection volume of the standard concentration solution; • DFsample is the dilution factor of the solution of the sample to be tested; • [STD] is the concentration of the standard concentration solution; • INJ VOLsample is the injection volume of the solution of the sample to be tested; and • Area ratio STD is the ratio of the peak area of sample in the standard concentration solution to the peak area of the internal standard.

In series [2] the target is USP1 (Recombinant Human His6-USP1/His6-UAF1 Complex Protein) (Homo sapiens (Human), UniProt O94782). As to the kind of experiment: In vitro activity assay for USP1 (Ub-CHOP2-Reporter deubiquitination assay). Format: biochemical. The following applies: 0.5 h incubation at room temperature, read-out: In vitro inhibitory activity of USP1 IC50. The method, then:
The assay kit (Ub-CHOP2-Reporter Deubiquitination Assay Kit) was purchased from Lifesensors, with Cat. No. of PR1101. The assay kit was subpackaged and stored at −80° C.
Each compound to be tested was dissolved with DMSO to 10 mM. The compound and pure DMSO (with a total volume of 50 nL) were loaded to each well of the 384-well plate by using an ECHO instrument to obtain gradient-diluted sample concentrations at different ratios. The enzyme was diluted with a freshly prepared reaction solution (20 mM Tris-HCl (pH 8.0), 2 mM CaCl2, 2 mM β-mercaptoethanol, 0.05% CHAPS, and ddH2O). To each well, 5 μL of diluted enzyme reaction solution was added, then the plate was centrifuged and oscillated to mix the enzyme and the compound, and the mixture was centrifuged again and placed on ice. The kit reporter system and the substrate were diluted with the reaction solution, then 5 μL of diluted liquid was added to each well, and mixed by centrifugation. The mixture was incubated at room temperature for 0.5 h. […] The inhibitory activity (IC50 values) of the compound on enzyme activity was calculated by using a four-parameter Logistic Model. […] A, B, C, and D are four parameters.

A short description of series [3]: Metabolic stability in vitro in rat hepatocytes. The format is in vitro ADME. The following applies: read-out: Intrinsic clearance. The method, then:
The concentration of each compound in the reaction system was measured by LC/MS/MS to calculate the intrinsic clearance of the compounds to be tested, and evaluate the metabolic stability in vitro in rat hepatocytes.
To the incubation plate, 198 μL of 0.5×10^6 cells/mL rat hepatocyte mixture and 2.0 μL of 100 μM compound to be tested or positive control were added to initiate reaction. Incubation was performed at 900 rpm at 37° C. […] Then the mixture was vortex-mixed for 5 min. […] Then 100 μL of supernatant of each compound was transferred to a 96-well sample plate, and 100 μL of purified water was added to dilute the sample. The resulting samples were quantified by ion chromatograms. The residual rate was calculated from peak areas of the compounds to be tested or the positive control. The slope k was determined using Microsoft Excel by linear regression of natural logarithm of the residual rate to the incubation time. The intrinsic clearance (in vitro CLint, μL/min/10^6 cells) was calculated from the slope value according to the following equation: […]
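Wherever GI50 is given: MDA-MB-436 proliferation over 7 days with compound, viability read as ATP luminescence (CellTiter-Glo), inhibition relative to DMSO-only wells, day 0 signal as background, GI50 from four-parameter fit.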

Sequence of USP1 (Recombinant Human His6-USP1/His6-UAF1 Complex Protein) (O94782 whole entry): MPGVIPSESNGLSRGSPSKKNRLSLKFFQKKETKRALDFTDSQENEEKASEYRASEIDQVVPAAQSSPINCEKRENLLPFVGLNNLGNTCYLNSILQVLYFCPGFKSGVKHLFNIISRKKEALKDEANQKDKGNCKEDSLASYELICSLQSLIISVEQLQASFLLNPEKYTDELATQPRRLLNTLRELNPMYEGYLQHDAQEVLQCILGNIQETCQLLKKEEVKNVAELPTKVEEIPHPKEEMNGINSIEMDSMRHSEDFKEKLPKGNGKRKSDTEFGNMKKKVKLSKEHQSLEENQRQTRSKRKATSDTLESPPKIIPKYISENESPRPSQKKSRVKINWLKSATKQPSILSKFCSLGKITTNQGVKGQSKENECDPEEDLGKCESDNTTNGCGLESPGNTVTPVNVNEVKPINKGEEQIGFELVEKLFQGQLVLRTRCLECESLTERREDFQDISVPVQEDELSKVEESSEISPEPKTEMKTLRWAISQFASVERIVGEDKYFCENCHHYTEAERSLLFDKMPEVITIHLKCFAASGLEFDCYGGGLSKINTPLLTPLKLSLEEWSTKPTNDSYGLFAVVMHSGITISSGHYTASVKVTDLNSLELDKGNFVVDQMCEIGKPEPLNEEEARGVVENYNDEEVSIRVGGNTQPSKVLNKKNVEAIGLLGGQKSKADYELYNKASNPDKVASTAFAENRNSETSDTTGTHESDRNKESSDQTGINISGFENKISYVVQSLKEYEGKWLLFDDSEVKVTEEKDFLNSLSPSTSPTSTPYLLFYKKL
Sequence of USP1 (Recombinant Human His6-USP1/His6-UAF1 Complex Protein) (Q8TAF3 whole entry partner): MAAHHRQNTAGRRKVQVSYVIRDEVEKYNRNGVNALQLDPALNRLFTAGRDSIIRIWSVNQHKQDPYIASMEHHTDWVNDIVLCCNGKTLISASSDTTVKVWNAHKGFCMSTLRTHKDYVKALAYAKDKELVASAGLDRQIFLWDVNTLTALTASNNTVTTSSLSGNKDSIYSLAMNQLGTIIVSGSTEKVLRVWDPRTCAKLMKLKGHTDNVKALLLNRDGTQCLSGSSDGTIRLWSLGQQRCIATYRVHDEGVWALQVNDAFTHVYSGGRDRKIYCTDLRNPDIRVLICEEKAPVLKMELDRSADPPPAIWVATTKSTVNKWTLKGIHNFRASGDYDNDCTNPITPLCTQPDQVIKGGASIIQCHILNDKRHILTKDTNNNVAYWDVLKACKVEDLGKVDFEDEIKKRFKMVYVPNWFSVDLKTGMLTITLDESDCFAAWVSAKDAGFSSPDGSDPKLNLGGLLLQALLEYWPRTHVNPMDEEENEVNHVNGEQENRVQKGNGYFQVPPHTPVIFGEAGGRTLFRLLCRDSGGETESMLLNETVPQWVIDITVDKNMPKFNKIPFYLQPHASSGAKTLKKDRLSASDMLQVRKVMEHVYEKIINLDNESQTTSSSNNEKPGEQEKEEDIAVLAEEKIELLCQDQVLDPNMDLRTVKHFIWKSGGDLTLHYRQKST
Procedure for MDA-MB-436 cells: Assay based on CellTiter-Glo luminescent cell viability assay system.
The assay kit (CellTiter-Glo® Luminescent Cell Viability Assay) was purchased from Promega, with Cat. No. of G7573, and was stored at −30° C. after subpackage. The kit is a homogeneous assay method for assaying the number of viable cells in a culture based on quantitative determination of ATP. The kit produces a luminescence signal proportional to the amount of ATP present, and the amount of ATP is directly proportional to the number of cells in the culture.
The cultured cells were trypsinized, collected and centrifuged, then resuspended at an adjusted concentration in a culture solution (DMEM+10% FBS), and cultured overnight on a 384-well plate (400 cells/20 μl/well) in a cell incubator with 5% CO2 at 37° C. An ECHO instrument was used to added the compound and pure DMSO onto each well of the 384-well plate. The total volume of the compound and DMSO is 100 nL, and the instrument obtains gradient diluted sample concentrations through different ratios. To each well, 30 μL of culture solution was added, and after mixing by centrifugal oscillation and re-centrifugation, the cells were cultured in a cell incubator for 7 days (one column of cells was subjected to CTG assay on the day of dosing). After day 7, 25 μL of CTG assay solution was added to each well, and after mixing by centrifugal oscillation and re-centrifugation, the cells were placed at room temperature away from light for 10 min. In terms of chemiluminescence signals, an Envision plate reader (PerkinElmer, emission wavelength: 400-700 nm) was used to measure a signal in each well. The chemiluminescence value [RLU]cpd on day 7 was obtained for the treatment group, the chemiluminescence value [RLU]cell on day 7 was obtained for the non-treatment group (given DMSO only), and the chemiluminescence value [RLU]background on day 0 was obtained for the parallel non-treatment group (given DMSO only) by CTG assay on day 0. […] In the following equation, x represents the concentration of the compound in a logarithmic form; and F(x) represents an effect value (inhibition rate of proliferation at the concentration): F(x)=(A+((B−A)/(1+((C/x)^D)))). A, B, C, and D are four parameters.

On to `CCN1C(=O)CN(Cc2ccc3c(c2)CCCn2cc(C(F)(F)F)nc2-3)c2nc(-c3c(OC)ncnc3C3CC3)ncc21` [Compound 46, 2-(4-cyclopropyl-6-methoxypyrimidin-5-yl)-5-ethyl-8-((2-(trifluoromethyl)-6,7-dihydro-5H-benzo[c]imidazo[1,2-a]azepin-9-yl)methyl)-7,8-dihydropteridin-6(5H)-one], for which the solubility at 2 h in series [1] is 50 µM (≈ 29.5 µg/mL).
For the compound `COc1ncnc(C2CC2)c1-c1ncc2c(n1)N(Cc1ccc(-c3nc(C(F)(F)F)cn3C(F)F)cc1)CC(=O)N2C` [Compound 28, 2(4-cyclopropyl-6-methoxypyrimidin-5-yl)-8-((4-(1-(difluoromethyl)-4-(trifluoromethyl)-1H-imidazol-2-yl)phenyl)methyl)-5-methyl-7,8-dihydropteridin-6(5H)-one], in series [2], the concentration for half-maximal inhibition (IC50) is 33.7 nM. Besides, the hepatocyte CLint at 1 μM in series [3] worked out at 6.3 µL/min/1e6 cells. Further, the solubility at 2 h in series [1] was 73 µM (≈ 42.8 µg/mL). This compound also registered a 50% growth inhibitory concentration (GI50) with MDA-MB-436 cells of 51.1 nM.
In the case of `COc1ncnc(C2CC2)c1-c1ncc2c(n1)N(Cc1ccc(-c3nc(C(F)(F)F)cn3C)c(F)c1)C(C)C(=O)N2C` (stereo not shown) [Compound 70, 2-(4-cyclopropyl-6-methoxypyrimidin-5-yl)-8-(3-fluoro-4-(1-methyl-4-(trifluoromethyl)-1H-imidazol-2-yl)benzyl)-5,7-dimethyl-7,8-dihydropteridin-6(5H)-one], the IC50 in series [2] was found to be 37.9 nM. Moreover, the solubility at 2 h in series [1] is 98 µM (≈ 57.1 µg/mL). The compound also displayed a 50% growth inhibitory concentration (GI50) with MDA-MB-436 cells of 93.1 nM.
Regarding `COc1ncnc(C2CC2)c1-c1ncc2c(n1)N(Cc1ccc(-c3nc(C(F)(F)F)cn3C)cn1)CCO2` [Compound 16], the solubility at 2 h in series [1] is 284 µM (≈ 149 µg/mL). Further, growth in the series on MDA-MB-436 cells was halved (GI50) at 1080 nM.
Take `COc1ncnc(C2CC2)c1-c1ncc2c(n1)N(CC1CCN(c3nc(C(F)(F)F)cn3C)CC1)CCO2` [Compound 30, 2-(4-cyclopropyl-6-methoxypyrimidin-5-yl)-8-((1-(1-methyl-4-(trifluoromethyl)-1H-imidazol-2-yl)piperidin-4-yl)methyl)-7,8-dihydro-6H-pyrimido[5,4-b][1,4]oxazine]: the 50% inhibitory concentration (IC50) in series [2] stood at 44.7 nM. The solubility at 2 h in series [1] is 225 µM (≈ 119 µg/mL). In the series with MDA-MB-436 cells, this compound displayed a GI50 of 161 nM.
In the same order, the values of `CCn1cc(C(F)(F)F)nc1-c1ccc(CN2CC(=O)N(C)c3cnc(-c4c(OC)ncnc4C4CC4)nc32)cc1` [Compound 40, 2-(4-cyclopropyl-6-methoxypyrimidin-5-yl)-5-methyl-8-(4-(1-ethyl-4-(trifluoromethyl)-1H-imidazol-2-yl)benzyl)-7,8-dihydropteridin-6(5H)-one] are 26.9 nM, 122 µM (≈ 68.9 µg/mL) and 22.6 nM.
Consider `COc1ncnc(C2CC2)c1-c1ncc2c(n1)N(Cc1ccc(-c3nc(C(F)(F)F)cn3C)cc1)CC(=O)N2C1CC1` [Compound 24, 2-(4-cyclopropyl-6-methoxypyrimidin-5-yl)-5-cyclopropyl-8-(4-(1-methyl-4-(trifluoromethyl)-1H-imidazol-2-yl)benzyl)-7,8-dihydropteridin-6(5H)-one], for which, in series [2], the half-maximal inhibitory concentration (IC50) worked out at 23.6 nM. In addition, in series [1], the solubility at 2 h is 228 µM (≈ 131 µg/mL). In addition, in the series with MDA-MB-436 cells, the GI50 was 86.2 nM.
In the same order, the values of `COc1ncnc(C2CC2)c1-c1ncc2c(n1)N(Cc1ccc(-c3nc(C(F)(F)F)cn3C(C)C)cc1)CC(=O)N2C` [Compound 41, 2-(4-cyclopropyl-6-methoxypyrimidin-5-yl)-5-methyl-8-(4-(1-isopropyl-4-(trifluoromethyl)-1H-imidazol-2-yl)benzyl)-7,8-dihydropteridin-6(5H)-one] are 19 nM, 88 µM (≈ 50.9 µg/mL) and 28.4 nM.
In the case of `COc1ncnc(C2CC2)c1-c1ncc2c(n1)N(Cc1ccc(-c3nc(C(F)(F)F)cn3C)cc1)C(=O)OC2` [Compound 80, 7-(4-cyclopropyl-6-methoxypyrimidin-5-yl)-1-(4-(1-methyl-4-(trifluoromethyl)-1H-imidazol-2-yl)benzyl)-1,4-dihydro-2H-pyrimido[4,5-d][1,3]oxazin-2-one], the 50% inhibitory concentration (IC50) in series [2] is 11.7 nM. Also, in series [1], the solubility at 2 h was 72 µM (≈ 38.7 µg/mL).
On to `CCN1C(=O)CN(Cc2ccc(-c3nc(C(F)(F)F)cn3C)cc2)c2nc(-c3c(OC)ncnc3C3CC3)ncc21` [Compound 33, 2-(4-cyclopropyl-6-methoxypyrimidin-5-yl)-5-ethyl-8-(4-(1-methyl-4-(trifluoromethyl)-1H-imidazol-2-yl)benzyl)-7,8-dihydropteridin-6(5H)-one], for which the half-maximal inhibitory concentration (IC50) in series [2] was determined as 31.3 nM. Also, in series [3], the hepatocyte CLint at 1 μM was found to be 4.3 µL/min/1e6 cells. Besides, in the series with MDA-MB-436 cells, the GI50 was determined as 53.8 nM.
`COc1ncnc(C2CC2)c1-c1ncc2c(n1)N(Cc1ccc(-c3nc(C(F)(F)F)cn3C(C)C)c(F)c1)CC(=O)N2C` [Compound 67, 2-(4-cyclopropyl-6-methoxypyrimidin-5-yl)-5-methyl-8-(3-fluoro-4-(1-isopropyl-4-(trifluoromethyl)-1H-imidazol-2-yl)benzyl)-7,8-dihydropteridin-6(5H)-one]: the IC50 in series [2] came to 16.8 nM. In addition, in the series on MDA-MB-436 cells, the concentration for 50% growth inhibition (GI50) was 17.3 nM.
For the compound `COc1ncnc(C2CC2)c1-c1ncc2c(n1)N(Cc1cc(F)c(-c3nc(C(F)(F)F)cn3C)c(F)c1)CC(=O)N2C` [Compound 66, 2-(4-cyclopropyl-6-methoxypyrimidin-5-yl)-5-methyl-8-(3,5-difluoro-4-(1-methyl-4-(trifluoromethyl)-1H-imidazol-2-yl)benzyl)-7,8-dihydropteridin-6(5H)-one], the concentration for half-maximal inhibition (IC50) in series [2] was 27.2 nM. Besides, the solubility at 2 h in series [1] is 115 µM (≈ 67.5 µg/mL). This compound also displayed a GI50 in the series with MDA-MB-436 cells of 29.6 nM.
As for `COc1ncnc(C2CC2)c1-c1ncc2c(n1)N(Cc1ccc3c(c1)CCCn1cc(C(F)(F)F)nc1-3)CC(=S)N2C` [Compound 82, 2-(4-cyclopropyl-6-methoxypyrimidin-5-yl)-5-methyl-8-((2-(trifluoromethyl)-6,7-dihydro-5H-benzo[c]imidazo[1,2-a]azepin-9-yl)methyl)-7,8-dihydropteridine-6(5H)-thione], the 50% inhibitory concentration (IC50) in series [2] amounted to 59.3 nM. This compound also yielded a 50% growth inhibitory concentration (GI50) with MDA-MB-436 cells of 35.8 nM.
For `COc1ncnc(C2CC2)c1-c1ncc2c(n1)N(Cc1ccc(-c3nc(C(F)(F)F)cn3C)cc1)C(C)C(=O)N2C` (stereo not shown) [Compound 26, 2-(4-cyclopropyl-6-methoxypyrimidin-5-yl)-5,7-dimethyl-8-(4-(1-methyl-4-(trifluoromethyl)-1H-imidazol-2-yl)benzyl)-7,8-dihydropteridin-6(5H)-one], the IC50 in series [2] amounted to 41.4 nM. Moreover, in series [3], the hepatocyte CLint at 1 μM was found to be 4.2 µL/min/1e6 cells. In addition, the solubility at 2 h in series [1] is 115 µM (≈ 64.9 µg/mL). In the series on MDA-MB-436 cells, the concentration for 50% growth inhibition (GI50) turned out to be 41.1 nM.
With `CC(C)c1ncccc1-c1ncc2c(n1)N(Cc1ccc(-c3nc(C(F)(F)F)cn3C)cc1)CCO2` [Compound 1, 2-(2-isopropylpyridin-3-yl)-8-(4-(1-methyl-4-(trifluoromethyl)-1H-imidazol-2-yl)benzyl)-7,8-dihydro-6H-pyrimido[5,4-b][1,4]oxazine], the concentration for half-maximal inhibition (IC50) in series [2] turned out to be 18 nM. The same compound registered a GI50 in the series on MDA-MB-436 cells of 22.9 nM.

By solubility is commonly meant how much of the substance goes into solution per volume. As usually defined, the IC50 is the concentration that gives 50% inhibition. One may read the GI50 as the concentration that inhibits growth by half. Read a low GI50 as more potent growth inhibition.
